# Assay results published in patent publication US20080275032A1, “Pyridazinone compounds” (priority 2006, published 2008).
# Target: HCV NS5B polymerase (Hepatitis C virus genotype 1b, UniProt P26663)
# Test: biochemical
# Conditions: HCV polymerase inhibition, 50 nM enzyme, 2 h at room temperature, FlashPlate [α-33P]GTP incorporation
# Chain of HCV NS5B polymerase (P26663 2420-3010): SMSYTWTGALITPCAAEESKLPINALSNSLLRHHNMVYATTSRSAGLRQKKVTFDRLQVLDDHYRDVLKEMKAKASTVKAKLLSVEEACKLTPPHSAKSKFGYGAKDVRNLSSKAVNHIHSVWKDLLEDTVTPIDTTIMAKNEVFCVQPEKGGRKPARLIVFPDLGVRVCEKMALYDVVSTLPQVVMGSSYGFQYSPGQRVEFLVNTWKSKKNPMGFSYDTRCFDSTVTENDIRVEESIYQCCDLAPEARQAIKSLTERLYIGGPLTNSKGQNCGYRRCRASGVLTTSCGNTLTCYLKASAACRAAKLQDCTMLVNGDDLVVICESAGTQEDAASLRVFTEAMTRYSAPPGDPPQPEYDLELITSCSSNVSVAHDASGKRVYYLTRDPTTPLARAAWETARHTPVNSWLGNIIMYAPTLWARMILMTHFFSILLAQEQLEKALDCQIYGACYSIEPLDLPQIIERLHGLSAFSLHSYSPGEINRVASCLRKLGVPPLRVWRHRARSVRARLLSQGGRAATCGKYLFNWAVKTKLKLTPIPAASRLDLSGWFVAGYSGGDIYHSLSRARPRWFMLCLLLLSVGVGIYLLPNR
row,SMILES,IC50 [nM]
1,"CC(C)CCn1nc(-c2cncs2)c(O)c(C2=Nc3ccc(NS(=O)(=O)C(C)C)cc3S(=O)(=O)N2)c1=O [Propane-2-sulfonic acid {3-[5-hydroxy-2-(3-methyl-butyl)-3-oxo-6-thiazol-5-yl-2,3-dihydro-pyridazin-4-yl]-1,1-dioxo-1,2-dihydro-1λ^6-benzo[1,2,4]thiadiazin-7-yl}-amide]",< 100
2,"CC(C)CCn1nc(-c2cccs2)c(O)c(C2=NS(=O)(=O)c3cc(NS(=O)(=O)C(C)C)ccc3N2)c1=O [Propane-2-sulfonic acid {3-[5-hydroxy-2-(3-methyl-butyl)-3-oxo-6-thiophen-2-yl-2,3-dihydro-pyridazin-4-yl]-1,1-dioxo-1,2-dihydro-1λ^6-benzo[1,2,4]thiadiazin-7-yl}-amide]",< 100
3,"CC(C)CCn1nc(-c2cccs2)c(O)c(C2=Nc3ccc(NC(=O)OC(C)C)cc3S(=O)(=O)N2)c1=O [{3-[5-Hydroxy-2-(3-methyl-butyl)-3-oxo-6-thiophen-2-yl-2,3-dihydro-pyridazin-4-yl]-1,1-dioxo-1,2-dihydro-1λ^6-benzo[1,2,4]thiadiazin-7-yl}-carbamic acid isopropyl ester]",1000 to 10000

# More lines, now with the values ahead:
row,IC50 [nM],SMILES
1,< 100,"CCCS(=O)(=O)Nc1ccc2c(c1)S(=O)(=O)N=C(c1c(O)c(-c3cccs3)nn(CCC(C)C)c1=O)N2 [Propane-1-sulfonic acid {3-[5-hydroxy-2-(3-methyl-butyl)-3-oxo-6-thiophen-2-yl-2,3-dihydro-pyridazin-4-yl]-1,1-dioxo-1,2-dihydro-1λ^6-benzo[1,2,4]thiadiazin-7-yl}-amide]"
2,< 100,"CC(C)S(=O)(=O)Nc1ccc2c(c1)S(=O)(=O)NC(c1c(O)c(-c3cccs3)nn(CCC3CC3)c1=O)=N2 [Propane-2-sulfonic acid {3-[2-(2-cyclopropyl-ethyl)-5-hydroxy-3-oxo-6-thiophen-2-yl-2,3-dihydro-pyridazin-4-yl]-1,1-dioxo-1,2-dihydro-1λ^6-benzo[1,2,4]thiadiazin-7-yl}-amide]"
